Laboratory results from US8614217B2 (priority 2008, dated 2013).
Read-outs that look alike come from different tables or passages of the source.

Experiment: log P(HCOOH) (HPLC/MS)
Assay type: physicochemical
[1] = HPLC on reversed phase columns, EEC directive 79/831 Annex V.A8, pH 2.7 with 0.1% formic acid in water and acetonitrile
[2] = HPLC on reversed phase columns, EEC directive 79/831 Annex V.A8, pH 2.7, 0.1% formic acid in water / acetonitrile gradient
[3] = HCOOH (formic acid), read-out: log P(HCOOH)

Cn1nnnc1C(=NOCc1csc(NC(=O)COc2cccc(Cl)c2)n1)c1ccccc1 [Example 249]
log p [1]: 3.7

COCCOCC(=O)Nc1nc(CON=C(c2cccc(F)c2)c2nnnn2C)cs1 [Example 183]
log p [2]: 2.68

Cc1nnnn1C(=NOCc1cccc(NC(=O)C2CCC(=O)O2)n1)c1ccccc1 (stereo not drawn) [Example 130]
log p [2]: 2.44

Cc1nnnn1C(=NOCc1cccc(NC(=O)CC2CC2)n1)c1ccccc1 [Example 124]
log p [2]: 2.94

Cn1nnnc1C(=NOCc1cccc(NC(=O)c2ccc(F)cc2)n1)c1cccc(F)c1 [Example 329]
log p [1]: 3.57

Cn1nnnc1C(=NOCc1csc(NC(=O)CCC2CCCCC2)n1)c1ccccc1 [Example 206]
log p [2]: 4.3

COCCOCCOCC(=O)Nc1nc(CON=C(c2cccc(F)c2)c2nnnn2C)cs1 [Example 186]
log p [2]: 2.66

C=CCOC(=O)Nc1cccc(CON=C(c2ccccc2)c2nnnn2C)n1 [Example 56]
log p [2]: 3.21

NOCc1cccc(N)n1 [6-[(aminooxy)methyl]pyridin-2-amine]
chromatographic logP [3]: < -0.23

Cn1nnnc1C(=NOCc1cccc(N2C(=O)c3ccccc3C2=O)n1)c1ccccc1 [2-{6-[({[(1-methyl-1H-tetrazol-5-yl)(phenyl)methylene]amino}oxy)methyl]pyridin-2-yl}-1H-isoindole-1,3(2H)-dione]
chromatographic logP [3]: 3.04

Cn1nnnc1C(=NOCc1csc(NC(=O)CC23CC4CC(CC(C4)C2)C3)n1)c1ccccc1 [Example 278]
log p [1]: 4.69

Cc1ccc(C(=O)Nc2nc(CON=C(c3ccccc3)c3nnnn3C)cs2)cc1 [Example 335]
log p [1]: 3.59

CC(Oc1ccc(F)cc1)C(=O)Nc1cccc(CON=C(c2ccccc2)c2nnnn2C)n1 (mixture of isomers) [Example 262]
log p [1]: 3.79

Cn1nnnc1C(=NOCc1csc(NC(=O)C(F)(F)C(F)(F)C(F)(F)F)n1)c1cccc(F)c1 [Example 192]
log p [2]: 3.75

Cn1nnnc1C(=NOCc1cccc(NC(=O)CSCc2ccccc2)n1)c1ccccc1 [Example 218]
log p [2]: 3.73

C=C(C)OC(=O)Nc1nc(CON=C(c2ccccc2)n2nnnc2C)cs1 [Example 104]
log p [2]: 2.96

Cc1nnnn1C(=NOCc1cccc(NC(=O)C(F)(F)C(F)(F)C(F)(F)C(F)(F)C(F)(F)C(F)(F)C(F)(F)F)n1)c1ccccc1 [Example 119]
log p [2]: 5.93

Cn1nnnc1C(=NOCc1cccc(N)n1)c1ccccc1 [6-[({[(1-methyl-1H-tetrazol-5-yl)(phenyl)methylene]amino}oxy)methyl]pyridin-2-amine]
chromatographic logP [3]: 1.14 | chromatographic logP (HCOOH, read-out: log P(HCOOH)): 1.13

Cc1nnnn1C(=NOCc1cccc(NC(=O)C2(c3ccccc3)CC2)n1)c1ccccc1 [Example 110]
log p [2]: 2.55

Cn1nnnc1C(=NOCc1csc(NC(=O)Cc2ccsc2)n1)c1cccc(F)c1 [Example 233]
log p [2]: 3.21

Cc1nnnn1C(=NOCc1cccc(NC(=O)C(F)(F)Sc2ccccc2)n1)c1ccccc1 [Example 48]
log p [2]: 4.2

CC(=O)OCCCCOC(=O)Nc1nc(CON=C(c2cccc(F)c2)c2nnnn2C)cs1 [Example 198]
log p [2]: 3.15

Cn1nnnc1C(=NOCc1cccc(NC(=O)c2ccccc2F)n1)c1cccc(F)c1 [Example 366]
log p [1]: 3.65

Cc1ccccc1C(=O)Nc1nc(CON=C(c2ccccc2)c2nnnn2C)cs1 [Example 327]
log p [1]: 3.41

Cn1nnnc1C(=NOCc1cccc(NC(=O)c2ccccc2Cl)n1)c1cccc(F)c1 [Example 362]
log p [1]: 3.57

Cn1nnnc1/C(=N\OCc1cccc(NC(=O)OCCCCCl)n1)c1ccccc1 [Example 67, 4-chlorobutyl {6-[({[(Z)-(1-methyl-1H-tetrazol-5-yl)(phenyl)methylene]amino}oxy)methyl]pyridin-2-yl}carbamate]
chromatographic logP [3]: 3.67 | chromatographic logP (HPLC on reversed phase columns, EEC directive 79/831 Annex V.A8, pH 2.7, 0.1% formic acid in water / acetonitrile gradient, read-out: log p): 3.67

COc1ccccc1C(=O)Nc1cccc(CON=C(c2cccc(F)c2)c2nnnn2C)n1 [Example 345]
log p [1]: 3.79

Cc1nnnn1C(=NOCc1csc(NC(=O)CCCC2CCCCC2)n1)c1ccccc1 [Example 229]
log p [2]: 4.82

CCCCc1ccc(C(=O)Nc2nc(CON=C(c3ccccc3)c3nnnn3C)cs2)cc1 [Example 268]
log p [1]: 4.68

Cn1nnnc1C(=NOCc1csc(NC(=O)c2cc(F)cc(F)c2)n1)c1ccccc1 [Example 340]
log p [1]: 3.63

Cn1nnnc1C(=NOCc1csc(NC(=O)COc2ccccc2Cl)n1)c1ccccc1 [Example 247]
log p [1]: 3.61

CC1CCC(C(C)C)C(OCC(=O)Nc2nc(CON=C(c3cccc(F)c3)c3nnnn3C)cs2)C1 (stereo not drawn) [Example 172]
log p [2]: 5.47

C#CCCOC(=O)Nc1cccc(CON=C(c2cccc(F)c2)n2nnnc2C)n1 [Example 23]
log p [2]: 3.21

Cc1nnnn1C(=NOCc1cccc(NC(=O)CC2CCCCC2)n1)c1cccc(F)c1 [Example 41]
log p [2]: 4.23

COC(=O)CCCCC(=O)Nc1nc(CON=C(c2cccc(F)c2)c2nnnn2C)cs1 [Example 298]
log p [1]: 2.94

Cc1nnnn1C(=NOCc1cccc(NC(=O)CCC2CCCC2)n1)c1cccc(F)c1 [Example 45]
log p [2]: 4.33

Cc1ccc(C(=O)Nc2cccc(CON=C(c3cccc(F)c3)c3nnnn3C)n2)c(Cl)c1 [Example 354]
log p [1]: 3.9

Cn1nnnc1C(=NOCc1csc(NC(=O)CSCc2ccccc2)n1)c1cccc(F)c1 [Example 194]
log p [2]: 3.68

COC(=O)CCCCC(=O)Nc1cccc(CON=C(c2ccccc2)n2nnnc2C)n1 [Example 145]
log p [2]: 2.86

CCOc1cccc(C(=O)Nc2cccc(CON=C(c3ccccc3)c3nnnn3C)n2)c1 [Example 313]
log p [1]: 3.79

Cc1nnnn1C(=NOCc1cccc(NC(=O)OC2CCCCCC2)n1)c1ccccc1 [Example 21]
log p [2]: 4.71

C=CCCOC(=O)Nc1cccc(CON=C(c2ccccc2)c2nnnn2C)n1 [Example 57]
log p [2]: 3.51

Cn1nnnc1C(=NOCc1cccc(NC(=O)c2cccs2)n1)c1ccccc1 [Example 214]
log p [2]: 3.21

Cc1nnnn1C(=NOCc1cccc(NC(=O)CC2CCCCC2)n1)c1ccccc1 [Example 40]
log p [2]: 4.12

Cn1nnnc1C(=NOCc1cccc(NC(=O)c2ccccc2OC(F)(F)F)n1)c1cccc(F)c1 [Example 328]
log p [1]: 3.9

Cn1nnnc1C(=NOCc1csc(NC(=O)c2ccccc2OC(F)(F)F)n1)c1ccccc1 [Example 325]
log p [1]: 3.61

O=C1c2ccccc2C(=O)N1OCc1cccc(N2C(=O)c3ccccc3C2=O)n1 [2-(6-{[(1,3-dioxo-1,3-dihydro-2H-isoindol-2-yl)oxy]methyl}pyridin-2-yl)-1H-isoindole-1,3(2H)-dione]
chromatographic logP [3]: 2.44

Cn1nnnc1C(=NOCc1cccc(NC(=O)CCOc2ccccc2)n1)c1ccccc1Cl (mixture of isomers) [Example 373]
log p [1]: 3.63

Cn1nnnc1C(=NOCc1cccc(NC(=O)c2ccccc2Br)n1)c1cccc(F)c1 [Example 365]
log p [1]: 3.59

C#CCCOC(=O)Nc1cccc(CON=C(c2ccccc2)n2nnnc2C)n1 [Example 17]
log p [2]: 3.15

C#CCCOC(=O)Nc1cccc(CON=C(c2ccccc2Cl)c2nnnn2C)n1 (mixture of isomers) [Example 372]
log p [1]: 3.21

Cc1ccccc1C(=O)Nc1cccc(CON=C(c2ccccc2)c2nnnn2C)n1 [Example 307]
log p [1]: 3.5

Cn1nnnc1C(=NOCc1cccc(NC(=O)CCCc2ccsc2)n1)c1ccccc1 [Example 221]
log p [2]: 3.7

Cn1nnnc1C(=NOCc1csc(NC(=O)COc2ccc(Cl)cc2)n1)c1ccccc1 [Example 250]
log p [1]: 3.68

Cc1nnnn1C(=NOCc1cccc(NC(=O)c2ccc(Cl)nc2)n1)c1ccccc1 [Example 121]
log p [2]: 3.15

Cn1nnnc1C(=NOCc1cccc(NC(=O)CCOc2ccccc2)n1)c1cccc(F)c1 [Example 10]
log p [2]: 3.64

C=C(C)OC(=O)Nc1cccc(CON=C(c2ccccc2)n2nnnc2C)n1 [Example 107]
log p [2]: 3.21

CC1CCC(C(C)C)C(OCC(=O)Nc2nc(CON=C(c3ccccc3)c3nnnn3C)cs2)C1 (stereo not drawn) [Example 284]
log p [1]: 5.39

Cc1nnnn1C(=NOCc1csc(NC(=O)COC2CC(C)CCC2C(C)C)n1)c1ccccc1 (mixture of isomers) [Example 86]
log p [2]: 5.48

COCCOCC(=O)Nc1nc(CON=C(c2ccccc2)c2nnnn2C)cs1 [Example 286]
log p [1]: 2.54

Cc1ccccc1C(=O)Nc1cccc(CON=C(c2cccc(F)c2)c2nnnn2C)n1 [Example 331]
log p [1]: 3.61

Cc1ccc(C(=O)Nc2cccc(CON=C(c3ccccc3)c3nnnn3C)n2)cc1 [Example 306]
log p [1]: 3.65

Cc1nnnn1C(=NOCc1cccc(NC(=O)CSCc2ccccc2)n1)c1ccccc1 [Example 151]
log p [2]: 3.73

Cn1nnnc1C(=NOCc1csc(NC(=O)OCC(Cl)(Cl)Cl)n1)c1ccccc1 [Example 245]
log p [2]: 3.7

Cn1nnnc1C(=NOCc1csc(NC(=O)COc2ccccc2-c2ccccc2)n1)c1ccccc1 [Example 289]
log p [1]: 4.32

C#CCCOC(=O)Nc1cccc(CON=C(c2cccc(F)c2)c2nnnn2C)n1 [Example 374]
log p [1]: 3.21

COc1ccccc1C(=O)Nc1nc(CON=C(c2ccccc2)c2nnnn2C)cs1 [Example 322]
log p [1]: 3.5

C#CCCCC(=O)Nc1cccc(CON=C(c2ccccc2)c2nnnn2C)n1 [Example 55]
log p [2]: 2.98

C=CCCOC(=O)Nc1cccc(CON=C(c2ccccc2C)c2nnnn2C)n1 (mixture of isomers) [Example 315]
log p [1]: 3.65

CCOc1ccc(C(=O)Nc2nc(CON=C(c3ccccc3)c3nnnn3C)cs2)cc1 [Example 271]
log p [1]: 3.64

C#CCCCC(=O)Nc1cccc(CON=C(c2cccc(F)c2)n2nnnc2C)n1 [Example 35]
log p [2]: 3.15

Cc1nnnn1C(=NOCc1csc(NC(=O)C2CCOCC2)n1)c1ccccc1 (mixture of isomers) [Example 73]
log p [2]: 2.49

Cn1nnnc1C(=NOCc1csc(NC(=O)c2cccc(Cl)c2)n1)c1ccccc1 [Example 248]
log p [1]: 3.73
